Measurements as given in ChEMBL document CHEMBL5154766, “Synthesis, bioevaluation and molecular dynamics of pyrrolo-pyridine benzamide derivatives as potential antitumor agents in vitro and in vivo” (Eur J Med Chem, 2022).
Each block holds one compound with its values, some of them ahead of it. Activity calls are given as the source filed them. The calls are words filed in the database; no cut-off is given here.

Experiments:
[1] = Toxicity in BALB/c nude mouse xenografted with human A549 cells assessed as effect on kidney at 20 mg/kg, ip administered every two days for 18 days by H and E staining method; format: organism-based; details: in vivo, 432 h, time 18 day
MCF7 = experiment: Antiproliferative activity against human MCF7 cells expressing c-Met after 48 hrs by MTT assay; format: functional, cell-based; details: MCF7, 48 h
A549 [2] = experiment: Antitumor activity against human A549 cells xenografted in BALB/c nude mouse assessed as reduction in Ki67 expression at 20 mg/kg, ip administered every two days for 18 days by immunohistochemistry; format: functional, organism-based; details: time 18.0 day
[3] = Toxicity in BALB/c nude mouse xenografted with human A549 cells assessed as effect on liver at 20 mg/kg, ip administered every two days for 18 days by H and E staining method; format: organism-based; details: in vivo, 432 h, time 18 day
A549 [4] = experiment: Induction of cell cycle arrest in human A549 cells assessed as accumulation at S phase at 5 uM measured by flow cytometry (reference value: 34.34%); format: functional
A549 [5] = experiment: Induction of apoptosis in human A549 cells assessed as early apoptotic cells at 5 uM measured after 24 hrs by PI/Annexin V staining based flow cytometry assay (reference value: 2.5%); format: functional
A549 [6] = experiment: Induction of apoptosis in human A549 cells assessed as late apoptotic cells at 5 uM measured after 24 hrs by PI/Annexin V staining based flow cytometry assay (reference value: 4.49%); format: functional
[7] = Toxicity in BALB/c nude mouse xenografted with human A549 cells assessed as effect on body weight at 20 mg/kg, ip administered every two days for 18 days; format: organism-based; details: in vivo, 432 h, time 18 day
A549 [8] = experiment: Induction of cell cycle arrest in human A549 cells assessed as accumulation at G0/G1 phase at 5 uM measured by flow cytometry (reference value: 57.68%); format: functional
A549 [9] = experiment: Antitumor activity against human A549 cells xenografted in BALB/c nude mouse assessed as tumor growth inhibition at 20 mg/kg, ip administered every two days for 18 days; format: functional; details: A549, 432 h, time 18 day, read-out: TGI
[10] = Toxicity in BALB/c nude mouse xenografted with human A549 cells assessed as effect on heart at 20 mg/kg, ip administered every two days for 18 days by H and E staining method; format: organism-based; details: in vivo, 432 h, time 18 day
A549 [11] = experiment: Antiproliferative activity against human A549 cells expressing c-Met after 48 hrs by MTT assay; format: functional, cell-based; details: A549, 48 h
HeLa = experiment: Antiproliferative activity against human HeLa cells expressing c-Met after 48 hrs by MTT assay; format: functional, cell-based
A549 [12] = experiment: Induction of cell cycle arrest in human A549 cells assessed as accumulation at G2/M phase at 5 uM measured by flow cytometry (reference value: 7.98%); format: functional
A549 [13] = experiment: Induction of apoptosis in human A549 cells assessed as increase in chromatin contraction at 1 to 5 uM measured after 12 hrs by Acridine orange staining method; format: functional, cell-based; details: dose 1-5 µM
A549 [14] = experiment: Induction of apoptosis in human A549 cells assessed as membrane swelling at 1 to 5 uM measured after 12 hrs by Acridine orange staining method; format: functional, cell-based; details: dose 1-5 µM
A549 [15] = experiment: Induction of cell cycle arrest in human A549 cells assessed as accumulation at G2/M phase at 10 uM measured by flow cytometry (reference value: 7.98%); format: functional
A549 [16] = experiment: Induction of cell cycle arrest in human A549 cells assessed as accumulation at G0/G1 phase at 2.5 uM measured by flow cytometry (reference value: 57.68%); format: functional
A549 [17] = experiment: Induction of cell cycle arrest in human A549 cells assessed as accumulation at S phase at 10 uM measured by flow cytometry (reference value: 34.34%); format: functional
A549 [18] = experiment: Induction of cell cycle arrest in human A549 cells assessed as accumulation at S phase at 2.5 uM measured by flow cytometry (reference value: 34.34%); format: functional
A549 [19] = experiment: Induction of apoptosis in human A549 cells assessed as early apoptotic cells at 2.5 uM measured after 24 hrs by PI/Annexin V staining based flow cytometry assay (reference value: 2.5%); format: functional
A549 [20] = experiment: Induction of apoptosis in human A549 cells assessed as cytoplasmic shrinkage at 1 to 5 uM measured after 12 hrs by Acridine orange staining method; format: functional, cell-based; details: dose 1-5 µM
A549 [21] = experiment: Induction of cell cycle arrest in human A549 cells assessed as accumulation at G2/M phase at 2.5 uM measured by flow cytometry (reference value: 7.98%); format: functional
A549 [22] = experiment: Induction of apoptosis in human A549 cells assessed as late apoptotic cells at 10 uM measured after 24 hrs by PI/Annexin V staining based flow cytometry assay (reference value: 4.49%); format: functional
A549 [23] = experiment: Induction of apoptosis in human A549 cells assessed as late apoptotic cells at 2.5 uM measured after 24 hrs by PI/Annexin V staining based flow cytometry assay (reference value: 4.49%); format: functional
A549 [24] = experiment: Downregulation of c-Met expression in human A549 cells at 5 to 10 uM measured by fluorescence quantitative PCR analysis; format: functional, cell-based; details: dose 5-10 µM
A549 [25] = experiment: Induction of apoptosis in human A549 cells assessed as early apoptotic cells at 10 uM measured after 24 hrs by PI/Annexin V staining based flow cytometry assay (reference value: 2.5%); format: functional
A549 [26] = experiment: Induction of apoptosis in human A549 cells assessed as apoptotic bodies formation at 1 to 5 uM measured after 12 hrs by Acridine orange staining method; format: functional, cell-based; details: dose 1-5 µM
A549 [27] = experiment: Induction of apoptosis in human A549 cells assessed as cell fragment formation at 1 to 5 uM measured after 12 hrs by Acridine orange staining method; format: functional, cell-based; details: dose 1-5 µM
A549 [28] = experiment: Induction of cell cycle arrest in human A549 cells assessed as accumulation at G0/G1 phase at 10 uM measured by flow cytometry (reference value: 57.68%); format: functional

- IC50 (MCF7): 30.9 µM
- IC50 (A549 [11]): 0.33 µM
- IC50 (HeLa): 79.1 µM
SMILES: COc1cc2nccc(Oc3ccc(NC(=O)C4(C(=O)Nc5ccc(F)cc5)CC4)cc3)c2cc1OC [CABOZANTINIB]
- Activity [1]: Non-Toxic
- Activity (A549 [2]): Active
- Activity [3]: Non-Toxic
- Activity (A549 [4]): 15.31%
- Activity (A549 [5]): 2.32%
- Activity (A549 [6]): 6.89%
- Activity [7]: Non-Toxic
- Activity (A549 [8]): 69.22%
- inhibition in vivo at 20 mg/kg (A549 [9]): 47.9%
- Activity [10]: Non-Toxic
- Activity (A549 [12]): 15.48%

- IC50 (MCF7): 44.9 µM
- IC50 (A549 [11]): 30.6 µM
SMILES: COc1ccc(-n2cc(C(=O)Nc3ccc(Oc4ccnc5c4ccn5C)cc3)c(=O)c3cccnc32)cc1

- IC50 (MCF7): 2.01 µM
- IC50 (A549 [11]): 12.4 µM
- IC50 (HeLa): 14.2 µM
SMILES: O=C(Nc1ccc(Oc2ccnc3[nH]ccc23)cc1)c1cn(-c2ccc(F)c(Cl)c2)c2ncccc2c1=O

- IC50 (MCF7): 1.18 µM
- IC50 (A549 [11]): 7.23 µM
- IC50 (HeLa): 19.9 µM
SMILES: COc1ccc(-n2cc(C(=O)Nc3ccc(Oc4ccnc5[nH]ccc45)c(F)c3)c(=O)c3cccnc32)cc1

- IC50 (HeLa): 50.3 µM
SMILES: O=C(Nc1ccc(Oc2ccnc3[nH]ccc23)cc1)c1cn(-c2ccc(C(F)(F)F)cc2Cl)c2ncccc2c1=O

- IC50 (MCF7): 13 µM
- IC50 (A549 [11]): 6.51 µM
- IC50 (HeLa): 29.3 µM
SMILES: O=C(Nc1ccc(Oc2ccnc3[nH]ccc23)c(F)c1)c1cn(-c2ccccc2)c2ncccc2c1=O

- IC50 (MCF7): 12 µM
- IC50 (A549 [11]): 9.71 µM
- IC50 (HeLa): 53.1 µM
SMILES: O=C(Nc1ccc(Oc2ccnc3[nH]ccc23)c(F)c1)c1cn(-c2ccc(F)c(Cl)c2)c2ncccc2c1=O

- IC50 (MCF7): 13.1 µM
- IC50 (A549 [11]): 22.3 µM
- IC50 (HeLa): 77 µM
SMILES: Cn1ccc2c(Oc3ccc(NC(=O)c4cn(-c5ccccc5)c5ncccc5c4=O)cc3)ccnc21

- IC50 (MCF7): 46.7 µM
- IC50 (A549 [11]): 18.2 µM
- IC50 (HeLa): 80 µM
SMILES: O=C(Nc1ccc(Oc2ccnc3[nH]ccc23)cc1)c1cn(-c2ccccc2)c2ncccc2c1=O

- IC50 (MCF7): 55.6 µM
- IC50 (A549 [11]): 20.1 µM
SMILES: O=C(Nc1ccc(Oc2ccnc3[nH]ccc23)c(F)c1)c1cn(-c2ccc(Br)cc2F)c2ncccc2c1=O

- IC50 (HeLa): 80.3 µM
SMILES: Cn1ccc2c(Oc3ccc(NC(=O)c4cn(-c5ccc(C(F)(F)F)cc5Cl)c5ncccc5c4=O)cc3)ccnc21

- IC50 (MCF7): 0.11 µM
- IC50 (A549 [11]): 1.06 µM
- IC50 (HeLa): 10.9 µM
SMILES: O=C(Nc1ccc(Oc2ccnc3[nH]ccc23)c(F)c1)c1cn(-c2ccc(Br)cc2)c2ncccc2c1=O
- Activity [1]: Non-Toxic
- Activity (A549 [13]): Active
- Activity (A549 [2]): Active
- Activity (A549 [14]): Active
- Activity [3]: Non-Toxic
- Activity (A549 [15]): 15.48%
- Activity (A549 [16]): 58.72%
- Activity (A549 [17]): 15.31%
- Activity (A549 [4]): 26.84%
- Activity (A549 [18]): 31.09%
- Activity (A549 [19]): 3.33%
- Activity (A549 [5]): 2.2%
- Activity (A549 [20]): Active
- Activity (A549 [21]): 10.19%
- Activity (A549 [22]): 12.69%
- Activity (A549 [6]): 8.13%
- Activity (A549 [23]): 5.58%
- Activity [7]: Non-Toxic
- Activity (A549 [24]): Active
- Activity (A549 [8]): 60.15%
- inhibition in vivo at 20 mg/kg (A549 [9]): 64.5%
- Activity [10]: Non-Toxic
- Activity (A549 [25]): 4%
- Activity (A549 [26]): Active
- Activity (A549 [27]): Active
- Activity (A549 [28]): 69.22%
- Activity (A549 [12]): 13.01%

- IC50 (MCF7): 14.8 µM
- IC50 (A549 [11]): 16.9 µM
SMILES: Cn1ccc2c(Oc3ccc(NC(=O)c4cn(-c5ccccc5)c5ncccc5c4=O)cc3F)ccnc21

- IC50 (MCF7): 47.2 µM
- IC50 (A549 [11]): 26 µM
- IC50 (HeLa): 95.4 µM
SMILES: COc1ccc(-n2cc(C(=O)Nc3ccc(Oc4ccnc5[nH]ccc45)cc3)c(=O)c3cccnc32)cc1

- IC50 (MCF7): 48.6 µM
- IC50 (A549 [11]): 15.1 µM
SMILES: Cn1ccc2c(Oc3ccc(NC(=O)c4cn(-c5ccc(F)c(Cl)c5)c5ncccc5c4=O)cc3)ccnc21

- IC50 (A549 [11]): 15.3 µM
- IC50 (HeLa): 63 µM
SMILES: Cn1ccc2c(Oc3ccc(NC(=O)c4cn(-c5ccc(Cl)cc5)c5ncccc5c4=O)cc3)ccnc21

- IC50 (A549 [11]): 16.8 µM
- IC50 (HeLa): 76.6 µM
SMILES: Cn1ccc2c(Oc3ccc(NC(=O)c4cn(-c5ccc(F)cc5)c5ncccc5c4=O)cc3)ccnc21

- IC50 (A549 [11]): 22.7 µM
SMILES: O=C(Nc1ccc(Oc2ccnc3[nH]ccc23)cc1)c1cn(-c2ccc(Br)cc2F)c2ncccc2c1=O

- IC50 (MCF7): 30.8 µM
- IC50 (A549 [11]): 8.39 µM
- IC50 (HeLa): 49.3 µM
SMILES: O=C(Nc1ccc(Oc2ccnc3[nH]ccc23)cc1)c1cn(-c2ccc(Br)cc2)c2ncccc2c1=O

- IC50 (MCF7): 13 µM
- IC50 (A549 [11]): 9.15 µM
- IC50 (HeLa): 27.8 µM
SMILES: O=C(Nc1ccc(Oc2ccnc3[nH]ccc23)c(F)c1)c1cn(-c2ccc(C(F)(F)F)cc2Cl)c2ncccc2c1=O

- IC50 (A549 [11]): 9.62 µM
- IC50 (HeLa): 86 µM
SMILES: O=C(Nc1ccc(Oc2ccnc3[nH]ccc23)cc1)c1cn(-c2ccc(F)cc2)c2ncccc2c1=O

- IC50 (MCF7): 5.49 µM
- IC50 (A549 [11]): 10.2 µM
SMILES: Cn1ccc2c(Oc3ccc(NC(=O)c4cn(-c5ccc(Br)cc5)c5ncccc5c4=O)cc3F)ccnc21

- IC50 (A549 [11]): 5.29 µM
SMILES: O=C(Nc1ccc(Oc2ccnc3[nH]ccc23)c(F)c1)c1cn(-c2ccc(Cl)cc2)c2ncccc2c1=O

- IC50 (MCF7): 29.1 µM
- IC50 (A549 [11]): 10.8 µM
- IC50 (HeLa): 50.2 µM
SMILES: Cn1ccc2c(Oc3ccc(NC(=O)c4cn(-c5ccc(Br)cc5)c5ncccc5c4=O)cc3)ccnc21

- IC50 (A549 [11]): 28.7 µM
SMILES: Cn1ccc2c(Oc3ccc(NC(=O)c4cn(-c5ccc(Br)cc5F)c5ncccc5c4=O)cc3)ccnc21

- IC50 (HeLa): 53.3 µM
SMILES: O=C(Nc1ccc(Oc2ccnc3[nH]ccc23)cc1)c1cn(-c2ccc(Cl)cc2)c2ncccc2c1=O

- IC50 (A549 [11]): 29.9 µM
- IC50 (HeLa): 61.2 µM
SMILES: Cn1ccc2c(Oc3ccc(NC(=O)c4cn(-c5ccc(Br)cc5F)c5ncccc5c4=O)cc3F)ccnc21

- IC50 (MCF7): 7.16 µM
- IC50 (A549 [11]): 6.42 µM
- IC50 (HeLa): 14.9 µM
SMILES: O=C(Nc1ccc(Oc2ccnc3[nH]ccc23)c(F)c1)c1cn(-c2ccc(F)cc2)c2ncccc2c1=O
